Measured values as given in patent publication USRE47689E1, “Compounds for treating spinal muscular atrophy” (PTC Therapeutics, Inc., priority 2011, dated 2019).
Read-outs that look alike come from different tables or passages of the source.

Key:
[1] = test system: SMN2 minigene (full length SMN2 minigene mRNA containing SMN2 exon 7); assay: SMN2 minigene mRNA splicing RT-qPCR assay in cultured cells; type: cell-based, human; details: Homo sapiens, HEK293-H, read-out: EC1.5x for production of full length SMN2 mRNA
How it was run: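 Read-out: full-length (exon 7-included) SMN2 minigene mRNA by multiplex RT-qPCR with GAPDH, efficiency-corrected (1+E)^−Ct, GAPDH-normalized and divided by vehicle. Stably transfected HEK293H cells, 24 h compound exposure, duplicates per concentration. Value is EC1.5x, reported as star ranges.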

Smn protein = Smn protein assay in cultured cells (SMN HTRF); type: cell-based, human; details: 48 hours; for EC1.5x (concentration giving 1.5-fold Smn protein increase): SMA Type 1 patient fibroblast cells (GM03813), 7-point concentration curve, SMN HTRF, concentration producing 1.5 times Smn protein vs DMSO vehicle control, read-out: EC1.5x for Smn protein expression; for maximum fold (Fold) increase of Smn protein: SMA patient fibroblast cells, 7-point concentration data, fold increase relative to vehicle control (SMN HTRF)
How it was run: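 Lysates in RIPA with protease inhibitors are incubated overnight at room temperature with HTRF anti-SMN antibodies. EC1.5x is derived from fold increase in ΔF over vehicle.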

[2] = HEK293H cells stably transfected with SMN2-A minigene, 24 hours, 7-point concentration curve, 1.5-fold relative to vehicle-treated cells

Compound: Cc1cn2cc(-c3cc4ccc(N5CCN(CCO)CC5)cc4oc3=O)cc2cn1 [Compound 684, 7-[4-(2-hydroxyethyl)piperazin-1-yl]-3-(3-methylpyrrolo[1,2-a]pyrazin-7-yl)-2H-chromen-2-one]
- melting point: 212 to 215 °C
- EC (1.5-fold) [1, 2]: < 0.1 µM
- EC1.5x (concentration giving 1.5-fold Smn protein increase) (Smn protein): < 300 nM
- maximum fold (Fold) increase of Smn protein (Smn protein): **** (fold increase between >1.5 and ≤1.65)

Compound: Cc1cn2cc(-c3cc4ccc(N5CCN(CCO)CC5)cc4oc3=O)cc2c(C)n1 [Compound 685, 3-(1,3-dimethylpyrrolo[1,2-a]pyrazin-7-yl)-7-[4-(2-hydroxyethyl)piperazin-1-yl]-2H-chromen-2-one]
- melting point: 160 to 164 °C
- EC (1.5-fold) [1, 2]: < 0.1 µM
- EC1.5x (concentration giving 1.5-fold Smn protein increase) (Smn protein): < 300 nM
- maximum fold (Fold) increase of Smn protein (Smn protein): **** (fold increase between >1.5 and ≤1.65)

Compound: Cc1cn2cc(-c3cc4ccc(N5C[C@H]6CNC[C@H]6C5)cc4oc3=O)nc2c(C)n1 [Compound 686, 3-(6,8-dimethylimidazo[1,2-a]pyrazin-2-yl)-7-[(3aR,6aS)-hexahydropyrrolo[3,4-c]pyrrol-2(1H)-yl]-2H-chromen-2-one]
- melting point: 250 to 260 °C
- EC (1.5-fold) [1, 2]: < 0.1 µM
- EC1.5x (concentration giving 1.5-fold Smn protein increase) (Smn protein): < 300 nM
- maximum fold (Fold) increase of Smn protein (Smn protein): ***** (fold increase >1.65)

Compound: Cc1cn2cc(-c3cc4ccc(N5CC[C@H]6CNC[C@H]65)cc4oc3=O)nc2c(C)n1 [Compound 687, 3-(6,8-dimethylimidazo[1,2-a]pyrazin-2-yl)-7-[(3aS,6aS)-hexahydropyrrolo[3,4-b]pyrrol-1(2H)-yl]-2H-chromen-2-one]
- melting point: 243 to 253 °C
- EC (1.5-fold) [1, 2]: < 0.1 µM
- EC1.5x (concentration giving 1.5-fold Smn protein increase) (Smn protein): 1000 to 3000 nM
- maximum fold (Fold) increase of Smn protein (Smn protein): *** (fold increase between >1.35 and ≤1.5)

Compound: Cc1cn2cc(-c3cc4ccc(N5C[C@H]6CN(C)C[C@H]6C5)cc4oc3=O)nc2c(C)n1 [Compound 688, 3-(6,8-dimethylimidazo[1,2-a]pyrazin-2-yl)-7-[(3aR,6aS)-5-methylhexahydropyrrolo[3,4-c]pyrrol-2(1H)-yl]-2H-chromen-2-one]
- melting point: 256 to 264 °C
- EC (1.5-fold) [1, 2]: < 0.1 µM
- EC1.5x (concentration giving 1.5-fold Smn protein increase) (Smn protein): < 300 nM
- maximum fold (Fold) increase of Smn protein (Smn protein): ***** (fold increase >1.65)

Compound: Cc1cn2cc(-c3cc4ccc(N5CC[C@H]6CN(C)C[C@H]65)cc4oc3=O)nc2c(C)n1 [Compound 689, 3-(6,8-dimethylimidazo[1,2-a]pyrazin-2-yl)-7-[(3aS,6aS)-5-methylhexahydropyrrolo[3,4-b]pyrrol-1(2H)-yl]-2H-chromen-2-one]
- melting point: 241 to 248 °C
- EC (1.5-fold) [1, 2]: 0.3 to 1 µM
- maximum fold (Fold) increase of Smn protein (Smn protein): *** (fold increase between >1.35 and ≤1.5)

Compound: Cc1cn2cc(-c3cc4ccc(N5CC[C@@H](N(C)C)C5)cc4oc3=O)nc2c(C)n1 [Compound 690, 7-[(3R)-3-(dimethylamino)pyrrolidin-1-yl]-3-(6,8-dimethylimidazo[1,2-a]pyrazin-2-yl)-2H-chromen-2-one]
- melting point: 239 to 242 °C
- EC (1.5-fold) [1, 2]: 0.1 to 0.3 µM
- EC1.5x (concentration giving 1.5-fold Smn protein increase) (Smn protein): 300 to 1000 nM
- maximum fold (Fold) increase of Smn protein (Smn protein): **** (fold increase between >1.5 and ≤1.65)

Compound: Cc1cn2cc(-c3cc4ccc(N5CC[C@H](N(C)C)C5)cc4oc3=O)nc2c(C)n1 [Compound 691, 7-[(3S)-3-(dimethylamino)pyrrolidin-1-yl]-3-(6,8-dimethylimidazo[1,2-a]pyrazin-2-yl)-2H-chromen-2-one]
- melting point: 244 to 246 °C
- EC (1.5-fold) [1, 2]: < 0.1 µM
- EC1.5x (concentration giving 1.5-fold Smn protein increase) (Smn protein): < 300 nM
- maximum fold (Fold) increase of Smn protein (Smn protein): **** (fold increase between >1.5 and ≤1.65)

Compound: Cc1cn2cc(-c3cc4ccc(N5CCN(C(C)C)CC5)cc4oc3=O)cc2cn1 [Compound 692, 3-(3-methylpyrrolo[1,2-a]pyrazin-7-yl)-7-[4-(propan-2-yl)piperazin-1-yl]-2H-chromen-2-one]
- melting point: 221 to 225 °C
- EC (1.5-fold) [1, 2]: < 0.1 µM
- EC1.5x (concentration giving 1.5-fold Smn protein increase) (Smn protein): < 300 nM
- maximum fold (Fold) increase of Smn protein (Smn protein): **** (fold increase between >1.5 and ≤1.65)

Compound: Cc1cn2cc(-c3cc4ccc(N5CC[C@@H](N(C)C)C5)cc4oc3=O)cc2cn1 [Compound 693, 7-[(3R)-3-(dimethylamino)pyrrolidin-1-yl]-3-(3-methylpyrrolo[1,2-a]pyrazin-7-yl)-2H-chromen-2-one]
- melting point: 206 to 208 °C
- EC (1.5-fold) [1, 2]: < 0.1 µM
- EC1.5x (concentration giving 1.5-fold Smn protein increase) (Smn protein): 300 to 1000 nM
- maximum fold (Fold) increase of Smn protein (Smn protein): **** (fold increase between >1.5 and ≤1.65)

Compound: CCN1CCN(c2ccc3cc(-c4cc5c(C)nc(C)cn5c4)c(=O)oc3c2)C[C@@H]1C [Compound 694, 3-(1,3-dimethylpyrrolo[1,2-a]pyrazin-7-yl)-7-[(3S)-4-ethyl-3-methylpiperazin-1-yl]-2H-chromen-2-one]
- melting point: 173 to 175 °C
- EC (1.5-fold) [1, 2]: < 0.1 µM
- EC1.5x (concentration giving 1.5-fold Smn protein increase) (Smn protein): < 300 nM
- maximum fold (Fold) increase of Smn protein (Smn protein): **** (fold increase between >1.5 and ≤1.65)

Compound: Cc1nc2ccc(-c3cc4ccc(N5CCNCC5)cc4oc3=O)cc2o1 [Compound 695, 3-(2-methyl-1,3-benzoxazol-6-yl)-7-(piperazin-1-yl)-2H-chromen-2-one]
- melting point: 200 to 205 °C
- EC (1.5-fold) [1, 2]: < 0.1 µM
- maximum fold (Fold) increase of Smn protein (Smn protein): *** (fold increase between >1.35 and ≤1.5)

Compound: Cc1cn2cc(-c3cc4ccc(N5C[C@@H]6C[C@H]5CN6C)cc4oc3=O)nc2c(C)n1 [Compound 696, 3-(6,8-dimethylimidazo[1,2-a]pyrazin-2-yl)-7-[(1S,4S)-5-methyl-2,5-diazabicyclo[2.2.1]hept-2-yl]-2H-chromen-2-one]
- melting point: 219 to 226 °C
- EC (1.5-fold) [1, 2]: < 0.1 µM
- EC1.5x (concentration giving 1.5-fold Smn protein increase) (Smn protein): < 300 nM
- maximum fold (Fold) increase of Smn protein (Smn protein): ***** (fold increase >1.65)

Compound: Cc1cn2cc(-c3cc4ccc(N5CC[C@H](N(C)C)C5)cc4oc3=O)cc2c(C)n1 [Compound 697, 7-[(3S)-3-(dimethylamino)pyrrolidin-1-yl]-3-(1,3-dimethylpyrrolo[1,2-a]pyrazin-7-yl)-2H-chromen-2-one]
- melting point: 195 to 198 °C
- EC (1.5-fold) [1, 2]: < 0.1 µM
- EC1.5x (concentration giving 1.5-fold Smn protein increase) (Smn protein): 300 to 1000 nM
- maximum fold (Fold) increase of Smn protein (Smn protein): *** (fold increase between >1.35 and ≤1.5)

Compound: Cc1nc(Cl)cn2cc(-c3cc4ccc(N5CCN[C@H](C)C5)cc4oc3=O)nc12 [Compound 699, 3-(6-chloro-8-methylimidazo[1,2-a]pyrazin-2-yl)-7-[(3R)-3-methylpiperazin-1-yl]-2H-chromen-2-one]
- melting point: 265 to 268 °C
- EC (1.5-fold) [1, 2]: 0.1 to 0.3 µM
- EC1.5x (concentration giving 1.5-fold Smn protein increase) (Smn protein): 300 to 1000 nM
- maximum fold (Fold) increase of Smn protein (Smn protein): ***** (fold increase >1.65)

Compound: Cc1cn2cc(-c3cc4ccc(N(C)[C@@H]5CCNC5)cc4oc3=O)nc2c(C)n1 [Compound 700, 3-(6,8-dimethylimidazo[1,2-a]pyrazin-2-yl)-7-{methyl[(3R)-pyrrolidin-3-yl]amino}-2H-chromen-2-one]
- melting point: 192 to 202 °C
- EC (1.5-fold) [1, 2]: 0.1 to 0.3 µM
- EC1.5x (concentration giving 1.5-fold Smn protein increase) (Smn protein): < 300 nM
- maximum fold (Fold) increase of Smn protein (Smn protein): ***** (fold increase >1.65)

Compound: Cc1cc([N+](=O)[O-])c2nc(-c3cc4ccc(N5C[C@@H](C)N[C@@H](C)C5)cc4oc3=O)cn2c1 [Compound 701, 7-[(3R,5S)-3,5-dimethylpiperazin-1-yl]-3-(6-methyl-8-nitroimidazo[1,2-a]pyridin-2-yl)-2H-chromen-2-one]
- melting point: 290 to 300 °C
- EC (1.5-fold) [1, 2]: 1 to 3 µM
- maximum fold (Fold) increase of Smn protein (Smn protein): ** (fold increase between >1.2 and ≤1.35)

Compound: Cc1cn2cc(-c3cc4ccc(N[C@@H]5C[C@H]6CCC[C@@H](C5)N6C)cc4oc3=O)nc2c(C)n1 [Compound 702, 3-(6,8-dimethylimidazo[1,2-a]pyrazin-2-yl)-7-{[(3-exo)-9-methyl-9-azabicyclo[3.3.1]non-3-yl]amino}-2H-chromen-2-one]
- melting point: 279 to 287 °C
- EC (1.5-fold) ([1]; 24 h): 1 to 3 µM
- maximum fold (Fold) increase of Smn protein (Smn protein): * (maximum fold increase of ≤1.2)

Compound: Cc1cc([N+](=O)[O-])c2nc(-c3cc4ccc(N5CCN[C@@H](C)C5)cc4oc3=O)cn2c1 [Compound 703, 3-(6-methyl-8-nitroimidazo[1,2-a]pyridin-2-yl)-7-[(3S)-3-methylpiperazin-1-yl]-2H-chromen-2-one]
- melting point: 251 to 259 °C
- EC (1.5-fold) [1, 2]: 1 to 3 µM
- maximum fold (Fold) increase of Smn protein (Smn protein): ** (fold increase between >1.2 and ≤1.35)

Compound: Cc1cn2cc(-c3cc4ccc(N5C[C@H]6CCN(C)[C@H]6C5)cc4oc3=O)nc2c(C)n1 [Compound 704, 3-(6,8-dimethylimidazo[1,2-a]pyrazin-2-yl)-7-[(3aR,6aR)-1-methylhexahydropyrrolo[3,4-b]pyrrol-5(1H)-yl]-2H-chromen-2-one]
- melting point: 255 to 263 °C
- EC (1.5-fold) [1, 2]: < 0.1 µM
- EC1.5x (concentration giving 1.5-fold Smn protein increase) (Smn protein): < 300 nM
- maximum fold (Fold) increase of Smn protein (Smn protein): **** (fold increase between >1.5 and ≤1.65)

Compound: Cc1cn2cc(-c3cc4ccc(N5C[C@@H]6CCN(C)[C@@H]6C5)cc4oc3=O)nc2c(C)n1 [Compound 706, 3-(6,8-dimethylimidazo[1,2-a]pyrazin-2-yl)-7-[(3aS,6aS)-1-methylhexahydropyrrolo[3,4-b]pyrrol-5(1H)-yl]-2H-chromen-2-one]
- melting point: 252 to 262 °C
- EC (1.5-fold) [1, 2]: < 0.1 µM
- EC1.5x (concentration giving 1.5-fold Smn protein increase) (Smn protein): 300 to 1000 nM
- maximum fold (Fold) increase of Smn protein (Smn protein): **** (fold increase between >1.5 and ≤1.65)
